This is an account of results in BindingDB's records for doi:10.1021/bi002865v (Pharmacia, 2001).

Where a SMILES comes first, the peptide text is derived from it. [ ]: non-standard residue; d: D form. sY = N[C@@H](Cc1ccc(OS(=O)(=O)O)cc1)C(=O)O; Nle = CCCC[C@H](N)C(=O)O

The experiment concerns the target T1, Tyrosine-protein phosphatase non-receptor type 1 (Rattus norvegicus, UniProt P20417).
T1 sequence (P20417 whole entry): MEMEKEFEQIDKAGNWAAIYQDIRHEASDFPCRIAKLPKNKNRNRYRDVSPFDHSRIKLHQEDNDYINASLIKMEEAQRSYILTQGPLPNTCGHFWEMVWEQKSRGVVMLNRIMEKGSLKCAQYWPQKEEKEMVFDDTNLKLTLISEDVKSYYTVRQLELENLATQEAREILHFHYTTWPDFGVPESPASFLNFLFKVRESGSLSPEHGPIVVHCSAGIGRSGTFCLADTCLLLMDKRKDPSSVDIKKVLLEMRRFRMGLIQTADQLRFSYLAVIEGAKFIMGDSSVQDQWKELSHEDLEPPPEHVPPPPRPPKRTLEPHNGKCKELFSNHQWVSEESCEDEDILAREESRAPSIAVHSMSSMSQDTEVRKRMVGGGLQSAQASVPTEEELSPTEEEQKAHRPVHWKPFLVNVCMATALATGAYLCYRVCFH
Nature of the experiment: PTP1B Inhibition Assay. To be noted: pH 7.2; 22 °C. From the text:
Hydrolysis of substrate p-nitrophenyl phosphate was monitored on a 96-well microplate reader. Concentrations of PTP1B inhibitors that resulted in 50% reduction of enzyme activity (IC50) were derived by fitting reaction rates obtained in the presence and absence of compounds.

In general, Ki refers to a measure of affinity in units of concentration, obtained from inhibition or displacement. The low end stands for a stronger hold on the target, the high end for a looser hold on the target. Regarding `CCCC[C@H](NC(=O)[C@H](Cc1ccc(OS(=O)(=O)O)cc1)NC(=O)[C@H](CC(=O)O)NC(C)=O)C(N)=O` (Ac-Asp-[sY]-[Nle]-NH2), the affinity, expressed as Ki, was 5 µM.
Then `CCCCCNC(=O)[C@H](Cc1ccc(OCC(=O)O)c(C(=O)O)c1)NC(=O)CCC(=O)O` [2-(carboxymethoxy)-5-[(2S)-2-(3-formamidopropanoic acid)-2-(pentylcarbamoyl)ethyl]benzoic acid], with 2.8 µM; and `CCCCCNC(=O)[C@H](Cc1ccc(OCC(=O)O)c(C(=O)O)c1)NC(=O)[C@H](Cc1ccccc1)NC(=O)Cn1[nH]ncc1=S` [2-(carboxymethoxy)-5-[(2S)-2-(pentylcarbamoyl)-2-[(2S)-3-phenyl-2-[1-(5-sulfanyl-1H-1,2,3-triazol-1-yl)acetamido]propanamido]ethyl]benzoic acid], with 0.12 µM.
Regarding `CCCCCNC(=O)[C@H](Cc1ccc(OC(C(=O)O)C(=O)O)cc1)NC(=O)CCC(=O)O` [2-{4-[(2S)-2-(3-formamidopropanoic acid)-2-(pentylcarbamoyl)ethyl]phenoxy}propanedioic acid], the affinity corresponds to a Ki of 12 µM. This Ki lies about 100-fold higher than the previous one.
Then `CCCCCNC(=O)[C@H](Cc1ccc(OC(C(=O)O)C(=O)O)cc1)NC(=O)[C@H](Cc1ccccc1)NC(=O)CCC(=O)O` [2-{4-[(2S)-2-[(2S)-2-(3-formamidopropanoic acid)-3-phenylpropanamido]-2-(pentylcarbamoyl)ethyl]phenoxy}propanedioic acid], with 1.2 µM.
Then `CCCCCNC(=O)[C@H](Cc1ccc(OS(=O)(=O)O)cc1)NC(=O)CCC(=O)O` [Compound II], with 30 µM; and `CCCCCNC(=O)[C@H](Cc1ccc(OCC(=O)OC)c(C(=O)OC)c1)NC(=O)[C@H](Cc1ccccc1)NC(=O)CCC(=O)OC` [methyl 2-(2-methoxy-2-oxoethoxy)-5-[(2S)-2-[(2S)-2-(methyl 3-formamidopropanoate)-3-phenylpropanamido]-2-(pentylcarbamoyl)ethyl]benzoate], with over 100 µM.
